Laboratory results as given in ChEMBL document CHEMBL1817621, “SAR studies of acidic dual γ-secretase/PPARγ modulators” (Bioorg Med Chem, 2011).
The source made the active and inactive calls. The calls are words filed in the database; no cut-off is given here.

Columns and labels:
CHO [1] = assay: Cytotoxicity against CHO cells expressing human APP and wild type human presenilin-1 assessed as reduction of cell viability up to 40 uM after 24 hrs by Alamar blue assay; assay type: cell-based, Cricetulus griseus; conditions: chinese hamster
[2] = biological target: T1, Peroxisome proliferator-activated receptor gamma (Homo sapiens, UniProt P37231); assay: Modulation of human PPARgamma-LBD expressed in african green monkey COS7 cells co-transfected with Gal4 assessed as activation of transactivation activity by luciferase assay; assay type: cell-based, COS-7
T1 sequence (P37231 whole entry): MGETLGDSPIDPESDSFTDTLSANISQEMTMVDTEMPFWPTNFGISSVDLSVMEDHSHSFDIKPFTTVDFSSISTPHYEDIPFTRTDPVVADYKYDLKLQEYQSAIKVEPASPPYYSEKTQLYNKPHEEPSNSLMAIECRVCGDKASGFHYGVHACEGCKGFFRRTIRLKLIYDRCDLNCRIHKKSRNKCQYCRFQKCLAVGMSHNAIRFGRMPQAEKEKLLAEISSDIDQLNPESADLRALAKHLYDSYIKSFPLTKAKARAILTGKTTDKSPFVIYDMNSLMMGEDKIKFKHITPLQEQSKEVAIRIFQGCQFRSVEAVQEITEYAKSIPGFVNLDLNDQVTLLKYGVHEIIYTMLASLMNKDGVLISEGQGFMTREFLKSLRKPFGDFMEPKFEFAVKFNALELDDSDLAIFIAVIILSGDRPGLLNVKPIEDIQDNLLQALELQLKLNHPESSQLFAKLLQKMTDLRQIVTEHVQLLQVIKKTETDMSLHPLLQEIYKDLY

[3] = Modulation of gamma-secretase expressed in CHO cells co-expressing human APP and wild type human presenilin-1 assessed as increase of amyloid beta38 production by ELISA; assay type: cell-based
[4] = Modulation of gamma-secretase expressed in CHO cells co-expressing human APP and wild type human presenilin-1 assessed as inhibition of amyloid beta42 production by ELISA; assay type: cell-based
[5] = biological target: T2, Peroxisome proliferator-activated receptor gamma (Homo sapiens) (UniProt P37231); assay: Modulation of human PPARgamma-LBD expressed in african green monkey COS7 cells co-transfected with Gal4 assessed as activation of transactivation activity by luciferase assay relative to pioglitazone; assay type: cell-based; conditions: COS-7
T2 sequence (whole entry): T1 sequence (P37231 whole entry)

[6] = biological target: T3, Prostaglandin G/H synthase 2 (Homo sapiens) (UniProt P35354); assay: Inhibition of human recombinant COX-2 assessed as residual activity by measuring formation of 12-HHT from arachidonic acid at 10 uM by HPLC analysis
T3 sequence (whole entry): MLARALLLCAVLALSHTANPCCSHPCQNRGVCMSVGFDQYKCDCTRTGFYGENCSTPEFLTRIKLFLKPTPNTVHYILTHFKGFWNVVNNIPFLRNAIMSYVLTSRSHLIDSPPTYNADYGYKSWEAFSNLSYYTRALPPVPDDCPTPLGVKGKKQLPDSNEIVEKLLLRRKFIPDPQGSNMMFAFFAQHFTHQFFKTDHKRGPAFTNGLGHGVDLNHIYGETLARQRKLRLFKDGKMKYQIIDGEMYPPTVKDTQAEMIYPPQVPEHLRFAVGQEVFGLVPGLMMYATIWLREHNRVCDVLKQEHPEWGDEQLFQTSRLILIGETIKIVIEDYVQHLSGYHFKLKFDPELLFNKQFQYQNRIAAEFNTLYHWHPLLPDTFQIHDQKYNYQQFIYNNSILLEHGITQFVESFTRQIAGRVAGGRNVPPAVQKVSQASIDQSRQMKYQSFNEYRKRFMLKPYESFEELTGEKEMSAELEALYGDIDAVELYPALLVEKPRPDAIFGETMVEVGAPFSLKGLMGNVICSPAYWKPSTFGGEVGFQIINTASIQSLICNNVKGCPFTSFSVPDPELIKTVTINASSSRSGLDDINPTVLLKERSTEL

[7] = biological target: T4, Prostaglandin G/H synthase 1 (Ovis aries) (UniProt P05979); assay: Inhibition of ovine COX-1 assessed as residual activity by measuring formation of 12-HHT from arachidonic acid at 10 uM by HPLC analysis
T4 sequence (whole entry): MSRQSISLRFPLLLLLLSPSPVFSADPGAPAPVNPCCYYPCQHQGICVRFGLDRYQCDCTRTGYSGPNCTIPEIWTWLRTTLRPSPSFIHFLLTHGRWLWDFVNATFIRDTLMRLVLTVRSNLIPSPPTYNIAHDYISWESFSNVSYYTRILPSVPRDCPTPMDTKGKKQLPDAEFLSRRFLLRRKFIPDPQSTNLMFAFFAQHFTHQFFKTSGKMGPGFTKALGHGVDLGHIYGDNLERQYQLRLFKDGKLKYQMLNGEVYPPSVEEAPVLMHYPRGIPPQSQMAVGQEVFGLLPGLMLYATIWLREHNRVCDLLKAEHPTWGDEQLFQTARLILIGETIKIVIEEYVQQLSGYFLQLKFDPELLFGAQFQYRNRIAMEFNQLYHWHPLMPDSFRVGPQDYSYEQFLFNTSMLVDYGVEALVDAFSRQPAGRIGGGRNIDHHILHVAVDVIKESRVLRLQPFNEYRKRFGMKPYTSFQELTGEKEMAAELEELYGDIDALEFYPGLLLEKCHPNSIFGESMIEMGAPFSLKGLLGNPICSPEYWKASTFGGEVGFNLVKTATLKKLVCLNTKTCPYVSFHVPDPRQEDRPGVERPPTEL

[8] = biological target: T5, Peroxisome proliferator-activated receptor alpha (Homo sapiens) (UniProt Q07869); assay: Modulation of human PPARalpha-LBD expressed in african green monkey COS7 cells co-transfected with Gal4 assessed as activation of transactivation activity at 10 uM by luciferase assay; assay type: cell-based; conditions: COS-7
T5 sequence (whole entry): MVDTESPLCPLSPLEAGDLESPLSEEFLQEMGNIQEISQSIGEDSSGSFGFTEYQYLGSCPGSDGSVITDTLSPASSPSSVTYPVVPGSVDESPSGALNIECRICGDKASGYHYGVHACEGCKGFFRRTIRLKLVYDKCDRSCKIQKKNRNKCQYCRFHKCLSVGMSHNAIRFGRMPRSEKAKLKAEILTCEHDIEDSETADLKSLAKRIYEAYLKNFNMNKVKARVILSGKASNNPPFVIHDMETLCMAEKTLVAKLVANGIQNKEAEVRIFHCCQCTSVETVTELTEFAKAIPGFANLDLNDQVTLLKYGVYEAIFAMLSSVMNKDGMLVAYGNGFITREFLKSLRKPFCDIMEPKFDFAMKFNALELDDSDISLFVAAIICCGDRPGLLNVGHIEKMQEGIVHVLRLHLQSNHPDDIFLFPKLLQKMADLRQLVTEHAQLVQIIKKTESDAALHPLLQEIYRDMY

[9] = biological target: T6, Peroxisome proliferator-activated receptor delta (Homo sapiens) (UniProt Q03181); assay: Modulation of human PPARdelta-LBD expressed in african green monkey COS7 cells co-transfected with Gal4 assessed as activation of transactivation activity at 10 uM by luciferase assay; assay type: cell-based; conditions: COS-7
T6 sequence (whole entry): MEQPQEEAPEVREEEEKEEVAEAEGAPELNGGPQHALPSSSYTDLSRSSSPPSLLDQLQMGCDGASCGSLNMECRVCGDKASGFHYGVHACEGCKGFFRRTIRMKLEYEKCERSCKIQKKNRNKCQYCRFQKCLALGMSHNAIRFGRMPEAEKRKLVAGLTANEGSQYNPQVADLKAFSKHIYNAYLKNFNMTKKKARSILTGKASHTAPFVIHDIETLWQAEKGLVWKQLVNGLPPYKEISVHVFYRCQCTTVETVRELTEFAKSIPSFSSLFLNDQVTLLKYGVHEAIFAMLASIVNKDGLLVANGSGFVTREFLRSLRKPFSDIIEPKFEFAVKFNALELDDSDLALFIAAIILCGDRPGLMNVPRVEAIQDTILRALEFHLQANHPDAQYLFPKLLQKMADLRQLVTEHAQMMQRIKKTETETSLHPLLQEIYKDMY

[10] = Selectivity ratio of inhibition of gamma-secretase-mediated notch signaling to modulation of gamma-secretase
CHO [11] = assay: Inhibition of gamma-secretase-mediated notch signaling expressed in CHO cells transfected with Gal4-DNA-binding/VP16 transactivation domain assessed as reduction of reporter activity up to 30 uM by luciferase assay; assay type: cell-based
[12] = biological target: T2, Peroxisome proliferator-activated receptor gamma (Homo sapiens); assay: Modulation of human PPARgamma-LBD expressed in african green monkey COS7 cells co-transfected with Gal4 assessed as activation of transactivation activity at 10 uM by luciferase assay; assay type: cell-based; conditions: COS-7

Row | EC50 [2] | EC50 [3] | IC50 [4] | Emax [5] | Activity [6] | Activity [7] | Activity [8] | Activity [9] | Ratio [10] | Activity [12] | SMILES | Activity (CHO [1]) | inhibition (CHO [11])
1 | 2.2 µM | > 40 µM | > 40 µM | 100% | 86.4% | 95.8% | inactive | inactive |  |  | CCCCC(Cc1ccc(OCCc2ccccc2)c(OCCc2ccccc2)c1)C(=O)O (stereo not drawn) | Non-toxic | 
2 | 7.2 µM | 1.6 µM | 2.4 µM | 86% | 102% | 81% | inactive | inactive | 8 |  | CCCC/C(=C\c1cc(OCCc2ccc(C(F)(F)F)cc2)ccc1OCCc1ccc(C(F)(F)F)cc1)C(=O)O | Non-toxic | inactive
3 | 7.8 µM | 27.3 µM | 37.9 µM | 95% | 81.4% | 81.4% | inactive | inactive |  |  | CCCC/C(=C\c1cc(OCCc2ccccc2)cc(OCCc2ccccc2)c1)C(=O)O | Non-toxic | 
4 |  |  | 6 µM |  |  |  |  |  |  |  | CCCCC(Sc1nc(OCCC2CCCCC2)cc(OCCC2CCCCC2)n1)C(=O)O (stereo not drawn) | Non-toxic | 
5 | 3.7 µM | > 40 µM | > 40 µM | 79% | 89.6% | 66.1% | inactive | inactive |  |  | CCCCC(Cc1cccc(OCCc2ccccc2)c1OCCc1ccccc1)C(=O)O (stereo not drawn) | Non-toxic | 
6 | 4.7 µM | 28.1 µM | 38.4 µM | 71% | 78.4% | 78.7% | inactive | inactive |  |  | CCCCC(Cc1cc(OCCc2ccccc2)cc(OCCc2ccccc2)c1)C(=O)O (stereo not drawn) | Non-toxic | 
7 | 1.1 µM | > 40 µM | > 40 µM | 69% | 79.1% | 73.8% | inactive | inactive |  |  | CCCCC(Cc1ccc(OCCC2CCCCC2)c(OCCC2CCCCC2)c1)C(=O)O (stereo not drawn) | Non-toxic | 
8 | 1.8 µM | 6.7 µM | 15.4 µM | 47% | 94.4% | 68% | inactive | inactive |  |  | CCCC/C(=C\c1cc(OCCc2ccccc2)ccc1OCCc1ccccc1)C(=O)O | Non-toxic | 
9 | 4.8 µM | 26.4 µM | 33.7 µM | 46% | 92.5% | 71.6% | inactive | inactive |  |  | CCCCC(Oc1cc(OCCc2ccccc2)cc(OCCc2ccccc2)c1)C(=O)O (stereo not drawn) | Non-toxic | 
10 |  | 2.5 µM | 2.7 µM |  | 106% | 92.3% | inactive | inactive |  | 27% | CCCC/C(=C\c1cc(OCCC2CCCCC2)ccc1OCc1ccc(C(F)(F)F)cc1)C(=O)O | Non-toxic | 
11 | 10.8 µM | 14.5 µM | 19.1 µM | 97% | 66.5% | 63.8% | inactive | inactive |  |  | CCCCC(Cc1cc(OCCc2ccccc2)ccc1OCCc1ccccc1)C(=O)O (stereo not drawn) | Non-toxic | 
12 | 1.5 µM | > 40 µM | > 40 µM | 128% | 96.6% | 82% | inactive | inactive |  |  | CCCCC(Cc1ccc(OCCc2ccccc2)c(OCCC2CCCCC2)c1)C(=O)O (stereo not drawn) | Non-toxic | 
13 |  | 1.1 µM | 1.2 µM |  | 102% | 82.6% | inactive | inactive |  | 28% | CCCC/C(=C\c1cc(OCc2ccc(C(F)(F)F)cc2)ccc1OCc1ccc(C(F)(F)F)cc1)C(=O)O | Non-toxic | 
14 | 2.5 µM | > 40 µM | > 40 µM | 61% | 91.5% | 69.1% | inactive | inactive |  |  | CCCCC(Cc1ccc(OCCC2CCCCC2)c(OCCc2ccccc2)c1)C(=O)O (stereo not drawn) | Non-toxic | 
15 | 3.4 µM | 22.2 µM | 32.7 µM | 73% | 110% | 71.3% | inactive | inactive |  |  | CCCCC(Sc1cc(OCCc2ccccc2)cc(OCCc2ccccc2)c1)C(=O)O (stereo not drawn) | Non-toxic | 
